# Laboratory results taken from article PMC5462828 (Scientific Reports, 2017).
# Where two headings read alike, the source gives them in different places.
# Tests used:
# RXFP1 and Gαs = system: T1, RXFP1 and Gαs; assay: Real-time kinetic BRET, RXFP1-Rluc8 / Gαs; assay type: cell-based, human; details: HEK293T co-expressing RXFP1-Rluc8, Gγ2-Venus, Gβ1, Gαs; H2 relaxin 100 nM, ML290 100 nM or 10 μM
# T1 construct: forward primer encodes M-D-S-K-G-S-S, not the native RXFP1 start (N); expressed in transfected cells; host or cells: HEK293T cells stably expressing RXFP1-Rluc8, transiently co-transfected with the G protein subunits
# Description: HEK293 cell were seeded in 6-well plates at a density of 600,000 cells per well and transfected with constructs encoding the tagged receptors and signalling proteins. 24 h later cells were harvested in HEPES-buffered phenol red-free medium containing 5% FBS and plated out in a white 96-well plate (Nunc) that was incubated at 37 °C under 5% CO2. BRET assays were performed 48 h after transfection as described previously, [52]. Medium was replaced with phenol-red-free-DMEM supplemented with 5% FBS plus 5 μM coelenterazine h. BRET measurements were made at 37 °C using the PHERAstar Omega plate reader with Omega software (BMG LABTECH, Germany). Filtered light emissions were simultaneously measured in each of the “donor wavelength window” (475 ± 15 nm for Rluc8 with coelenterazine h) and “acceptor wavelength window” (535 ± 15 nm for Venus). Cells were assayed before and after treatment with ligands or 5% FBS phenol-red-free-DMEM medium containing 0.01% w/v BSA (vehicle). The BRET signal was calculated as previously described.
# MMP-2 = assay: Gelatin zymography of MMP-2 in human cardiac fibroblasts; assay type: cell-based; details: HCFs; 72 hours; ML290 1 μM, H2 relaxin 0.1 μM
# Description: Changes in matrix metalloproteinases-2 (MMP-2; gelatinase A) activity that were secreted from HCFs into the cell media over a 72 hour experimental period, were assessed by gelatin zymography as described previously, [45]. […] Cells were used between passages 1–4, while all experiments were performed four separate times in duplicate. The optical density (OD) of MMP-2 was measured using a GS710 Calibrated Imaging Densitomer (Bio-Rad Laboratories, Hercules, CA, USA), and the mean ± SE OD of MMP-2 in each treated group was expressed as the relative ratio of the values in the untreated control group.
# [1] = set-up: method as in PMID 23764525; details: cited from earlier work
# mouse RXFP1 = details: cited from earlier work
# RXFP1 [2] = molecular target: T2, RXFP1 (Homo sapiens, UniProt Q9HBX9); assay: p38MAPK phosphorylation (Surefire) in human primary vascular cells; assay type: cell-based; set-up: In human primary vascular endothelial and smooth muscle cells that endogenously express RXFP1; details: 15 min
# T2 sequence (Q9HBX9 1-757): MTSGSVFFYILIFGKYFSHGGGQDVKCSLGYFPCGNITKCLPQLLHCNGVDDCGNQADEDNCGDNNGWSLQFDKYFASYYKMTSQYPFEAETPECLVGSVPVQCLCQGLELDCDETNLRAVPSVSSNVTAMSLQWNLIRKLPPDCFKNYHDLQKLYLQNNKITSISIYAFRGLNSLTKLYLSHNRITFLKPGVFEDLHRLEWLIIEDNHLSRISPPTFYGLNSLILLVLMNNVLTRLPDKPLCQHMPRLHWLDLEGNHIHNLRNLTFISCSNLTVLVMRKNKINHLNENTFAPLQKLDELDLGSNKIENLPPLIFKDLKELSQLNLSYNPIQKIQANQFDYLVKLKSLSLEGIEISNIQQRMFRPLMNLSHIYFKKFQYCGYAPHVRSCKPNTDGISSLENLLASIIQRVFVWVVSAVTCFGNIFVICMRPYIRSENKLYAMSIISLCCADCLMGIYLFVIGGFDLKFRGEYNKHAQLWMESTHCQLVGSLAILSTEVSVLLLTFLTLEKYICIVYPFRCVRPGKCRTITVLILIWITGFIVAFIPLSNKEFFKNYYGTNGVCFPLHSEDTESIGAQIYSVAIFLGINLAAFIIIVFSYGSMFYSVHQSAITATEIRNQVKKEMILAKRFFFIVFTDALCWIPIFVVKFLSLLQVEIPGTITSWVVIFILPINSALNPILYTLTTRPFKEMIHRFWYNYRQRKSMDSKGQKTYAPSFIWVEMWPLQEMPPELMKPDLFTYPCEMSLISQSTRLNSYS
# Description: (§1) p-ERK1/2, p-p38MAPK and p-JNK1/2 was measured using the Surefire ERK, p38 and JNK kits (TGR BioSciences, Australia) as described previously, [16]. Briefly, HEK-RXFP1 cells were plated into 96-well plates (5 × 10^4 cells/well) and primary cells grown in 24-well plates (1 × 10^5 cells/well) overnight to achieve a confluent monolayer. Prior to stimulation, HEK293 cells were serum-starved with DMEM containing 0.5% (v/v) FBS and primary cells in M199 medium for 4–6 hours. […] Levels of p-ERK1/2, p-p38MAPK and p-JNK1/2/3 were detected as per manufacturer’s instructions (Perkin-Elmer, Australia).
# RXFP1 [3] = molecular target: T2, RXFP1; assay: 125I-H2 relaxin association and dissociation kinetic studies in HEK-RXFP1 cells; assay type: binding; set-up: expressed in transfected cells; host or cells: HEK293T / HEK293 cells stably expressing RXFP1 (HEK-RXFP1); details: ML290 1 μM
# Description: Association and dissociation kinetic studies were performed using ^125I-H2 relaxin. Briefly, HEK-RXFP1 cells were plated in 96-well plates and allowed to adhere overnight. After rinsing with PBS, the cells were incubated at the given time intervals with 100pM of ^125I-H2 relaxin to measure the association rate. The dissociation rate of ML290 was calculated using ligand competition. […] The reactions were terminated by the removal of medium and washing with ice-cold PBS. Cells were digested using 0.1 M NaOH and radioactivity counted on the γ-counter.
# RXFP1 [4] = molecular target: T2, RXFP1; assay: JNK1/2 phosphorylation (Surefire) in HEK-RXFP1 cells; assay type: cell-based; set-up: expressed in transfected cells; host or cells: HEK293T / HEK293 cells stably expressing RXFP1 (HEK-RXFP1); details: up to 45 min, H2 relaxin 100 nM, ML290 100 nM or 10 μM
# Description: as §1
structure (smiles),measurement,setting,value
"CC(C)Oc1ccccc1C(=O)Nc1ccccc1C(=O)Nc1cccc(S(=O)(=O)C(F)(F)F)c1 [ML290, 2-Isopropoxy-N-(2-(3-(trifluoromethylsulfonyl)phenylcarbamoyl)phenyl) benzamide]","ligand-induced BRET, RXFP1 - Gαs interaction",RXFP1 and Gαs,promoted interactions
same,increase of MMP-2 expression versus untreated controls,MMP-2,~40%
same,cytotoxicity,[1],little cytotoxicity
same,action at mouse RXFP1,mouse RXFP1,antagonist actions
same,agonist action at the mouse orthologue of RXFP1,mouse RXFP1,no agonist actions
same,Emax,"RXFP1 [2]; read-out: p-p38MAPK efficacy (Emax), HUASMC",4.4%
same,Emax,"RXFP1 [2]; read-out: p-p38MAPK efficacy (Emax), HUVSMC",2.7%
same,effect on the association rate of 125I-H2 relaxin,RXFP1 [3],no significant effect
same,"JNK1/2 phosphorylation, time course",RXFP1 [4],no effect
